Active and inactive are the calls of the source.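 How the source made its calls: active means compound whose fitted luminescence drop, meaning cytotoxicity, reaches half effect at most twice its top valid tested dose; inconclusive means flat curve with a moderate drop, or an unreliable fit; inactive means rise instead of drop, flat response, or weaker potency.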
Assay: NIH/3T3 fibroblast cytotoxicity, dose response, cytotoxicity control for T. cruzi growth inhibitor project, cell-based, cherry-pick samples, set 2 (AID 651817)
Conditions: NIH/3T3 viability, ATP luminescence (CellTiter-Glo), 90 h; at 3.8 µM (top of the series)
For `C[C@H]1CN([C@@H](C)CO)C(=O)c2cccc(NC(=O)c3nc4ccccc4s3)c2O[C@@H]1CN(C)S(=O)(=O)c1ccccc1`, the activity change, negative = cytotoxicity was 28.8% (inactive).

Same assay, conditions: NIH/3T3 viability, ATP luminescence (CellTiter-Glo), 90 h; at 4.2 µM (top of the series)
With `COc1ccc(CN(C)C[C@H]2Oc3c(NC(=O)Nc4ccc(C(F)(F)F)cc4)cccc3C(=O)N([C@H](C)CO)C[C@H]2C)cc1` the activity change, negative = cytotoxicity was 6.55% (inactive).

Same assay, conditions: NIH/3T3 viability, ATP luminescence (CellTiter-Glo), 90 h; at 19.5 µM (top of the series)
In the case of `C[C@@H]1CN([C@H](C)CO)C(=O)Cc2cc(NS(=O)(=O)c3ccc(Cl)cc3)ccc2O[C@H]1CN(C)Cc1ccc2c(c1)OCO2`, the activity change, negative = cytotoxicity is reported as -22% (inactive). With `Cc1ccc(S(=O)(=O)N(C)C[C@H]2Oc3ccc(NS(=O)(=O)c4ccc(Cl)cc4)cc3CC(=O)N([C@H](C)CO)C[C@@H]2C)cc1` the activity change, negative = cytotoxicity was 3.37% (inactive). For `Cc1ccc(S(=O)(=O)N(C)C[C@H]2Oc3c(NC(=O)c4nc5ccccc5s4)cccc3C(=O)N([C@H](C)CO)C[C@@H]2C)cc1`, the activity change, negative = cytotoxicity was -6.91% (inactive). For `C[C@@H]1CN([C@@H](C)CO)C(=O)c2cccc(NC(=O)Nc3ccc(C(F)(F)F)cc3)c2O[C@H]1CN(C)Cc1ccc(Cl)c(Cl)c1`, the activity change, negative = cytotoxicity was -34.5% (inactive). With `COc1ccc(CN(C)C[C@H]2Oc3c(NC(=O)Nc4ccc(C(F)(F)F)cc4)cccc3C(=O)N([C@H](C)CO)C[C@@H]2C)cc1` the activity change, negative = cytotoxicity was -1.02% (inactive). For `C[C@@H]1CN([C@H](C)CO)C(=O)c2cccc(NC(=O)c3nc4ccccc4s3)c2O[C@H]1CN(C)Cc1ccc2c(c1)OCO2`, the activity change, negative = cytotoxicity was -10.9% (inactive). For `Cc1ccc(S(=O)(=O)Nc2ccc3c(c2)CC(=O)N([C@@H](C)CO)C[C@@H](C)[C@@H](CN(C)Cc2ccccc2)O3)cc1`, the activity change, negative = cytotoxicity was -13.8% (inactive). In the case of `C[C@H]1CN([C@@H](C)CO)C(=O)c2cccc(NC(=O)c3ccncc3)c2O[C@@H]1CN(C)Cc1ccc(Cl)c(Cl)c1`, the activity change, negative = cytotoxicity is reported as -25.7% (inactive). In the case of `C[C@@H]1CN([C@@H](C)CO)C(=O)c2cccc(NC(=O)c3nc4ccccc4s3)c2O[C@H]1CN(C)Cc1ccc2c(c1)OCO2`, the activity change, negative = cytotoxicity is reported as -20.2% (inactive). With `C[C@H]1CN([C@@H](C)CO)C(=O)Cc2cc(NS(=O)(=O)c3ccccc3)ccc2O[C@H]1CN(C)S(=O)(=O)c1ccc(Cl)cc1` the activity change, negative = cytotoxicity was -30.3% (inactive). In the case of `Cc1ccc(S(=O)(=O)N(C)C[C@@H]2Oc3c(NC(=O)c4nc5ccccc5s4)cccc3C(=O)N([C@@H](C)CO)C[C@H]2C)cc1`, the activity change, negative = cytotoxicity is reported as -13.6% (inactive). In the case of `COc1ccc(S(=O)(=O)Nc2ccc3c(c2)CC(=O)N([C@H](C)CO)C[C@@H](C)[C@H](CN(C)Cc2ccc4c(c2)OCO4)O3)cc1`, the activity change, negative = cytotoxicity is reported as 4.02% (inactive). For `Cc1ccc(S(=O)(=O)N(C)C[C@H]2Oc3c(NC(=O)c4nc5ccccc5s4)cccc3C(=O)N([C@H](C)CO)C[C@H]2C)cc1`, the activity change, negative = cytotoxicity was 14.1% (inactive). For `Cc1ccc(S(=O)(=O)Nc2ccc3c(c2)CC(=O)N([C@H](C)CO)C[C@@H](C)[C@H](CN(C)S(=O)(=O)c2ccc(Cl)cc2)O3)cc1`, the activity change, negative = cytotoxicity was -23.3% (inactive). In the case of `C[C@@H]1CN([C@H](C)CO)C(=O)c2cccc(NC(=O)c3ccncc3)c2O[C@@H]1CN(C)CC1CCCCC1`, the activity change, negative = cytotoxicity is reported as 29% (inactive). With `C[C@@H]1CN([C@@H](C)CO)C(=O)c2cccc(NC(=O)c3nc4ccccc4s3)c2O[C@H]1CN(C)S(=O)(=O)c1ccc(Cl)cc1` the activity change, negative = cytotoxicity was -6.73% (inactive). In the case of `C[C@H](CO)N1C[C@H](C)[C@H](CN(C)Cc2ccc(-c3ccccc3)cc2)Oc2c(NC(=O)c3ccncc3)cccc2C1=O`, the activity change, negative = cytotoxicity is reported as 4.37% (inactive). In the case of `Cc1ccc(S(=O)(=O)N(C)C[C@H]2Oc3ccc(NS(=O)(=O)c4ccccc4)cc3CC(=O)N([C@@H](C)CO)C[C@@H]2C)cc1`, the activity change, negative = cytotoxicity is reported as 26% (inactive). With `Cc1ccc(S(=O)(=O)N(C)C[C@H]2Oc3ccc(NS(=O)(=O)c4ccccc4)cc3CC(=O)N([C@H](C)CO)C[C@@H]2C)cc1` the activity change, negative = cytotoxicity was -11.8% (inactive). With `COc1ccc(CN(C)C[C@@H]2Oc3c(NC(=O)Nc4ccc(C(F)(F)F)cc4)cccc3C(=O)N([C@@H](C)CO)C[C@@H]2C)cc1` the activity change, negative = cytotoxicity was -25.6% (inactive). For `Cc1noc(C)c1NC(=O)Nc1cccc2c1O[C@H](CN(C)S(C)(=O)=O)[C@H](C)CN([C@@H](C)CO)C2=O`, the activity change, negative = cytotoxicity was 1.29% (inactive). With `C[C@H]1CN([C@@H](C)CO)C(=O)c2cccc(NC(=O)c3ccncc3)c2O[C@@H]1CN(C)Cc1ccc2c(c1)OCO2` the activity change, negative = cytotoxicity was -3.23% (inactive). In the case of `C[C@@H]1CN([C@H](C)CO)C(=O)Cc2cc(NS(=O)(=O)c3ccccc3)ccc2O[C@H]1CN(C)S(=O)(=O)c1ccc(Cl)cc1`, the activity change, negative = cytotoxicity is reported as -1.38% (inactive). For `C[C@@H]1CN([C@H](C)CO)C(=O)c2cccc(NC(=O)NC3CCCCC3)c2O[C@H]1CN(C)S(=O)(=O)c1ccc(F)cc1`, the activity change, negative = cytotoxicity was 1.29% (inactive). With `C[C@H](CO)N1C[C@H](C)[C@@H](CN(C)Cc2ccc(C(F)(F)F)cc2)Oc2c(NC(=O)c3ccncc3)cccc2C1=O` the activity change, negative = cytotoxicity was -10.8% (inactive). For `Cc1ccc(S(=O)(=O)N(C)C[C@H]2Oc3c(NC(=O)c4nc5ccccc5s4)cccc3C(=O)N([C@@H](C)CO)C[C@@H]2C)cc1`, the activity change, negative = cytotoxicity was -1.47% (inactive). In the case of `C[C@H](CO)N1C[C@H](C)[C@@H](CN(C)S(=O)(=O)c2ccc(Cl)cc2)Oc2ccc(NS(=O)(=O)c3ccc(Cl)cc3)cc2CC1=O`, the activity change, negative = cytotoxicity is reported as -32.5% (inactive). In the case of `Cc1ccc(S(=O)(=O)Nc2ccc3c(c2)CC(=O)N([C@@H](C)CO)C[C@H](C)[C@H](CN(C)Cc2ccccc2)O3)cc1`, the activity change, negative = cytotoxicity is reported as -4.35% (inactive). For `C[C@@H]1CN([C@H](C)CO)C(=O)c2cccc(NC(=O)c3ccncc3)c2O[C@@H]1CN(C)Cc1ccc(C(F)(F)F)cc1`, the activity change, negative = cytotoxicity was -24.5% (inactive). For `Cc1ccc(S(=O)(=O)Nc2ccc3c(c2)CC(=O)N([C@H](C)CO)C[C@@H](C)[C@H](CN(C)Cc2ccc4c(c2)OCO4)O3)cc1`, the activity change, negative = cytotoxicity was 11% (inactive).

Same assay, conditions: NIH/3T3 viability, ATP luminescence (CellTiter-Glo), 90 h; at 21 µM (top of the series)
For `C[C@@H]1CN([C@@H](C)CO)C(=O)c2cccc(NC(=O)c3ccncc3)c2O[C@@H]1CN(C)Cc1ccc(Oc2ccccc2)cc1`, the activity change, negative = cytotoxicity was 31.2% (inactive). For `C[C@H]1CN([C@@H](C)CO)C(=O)c2cccc(NC(=O)c3ccncc3)c2O[C@H]1CN(C)Cc1ccc2c(c1)OCO2`, the activity change, negative = cytotoxicity was 4.17% (inactive). With `C[C@@H]1CN([C@@H](C)CO)C(=O)c2cccc(NC(=O)c3ccncc3)c2O[C@H]1CN(C)Cc1ccccc1` the activity change, negative = cytotoxicity was 6.47% (inactive). With `Cc1ccc(S(=O)(=O)Nc2ccc3c(c2)CC(=O)N([C@H](C)CO)C[C@H](C)[C@H](CN(C)S(=O)(=O)c2ccc(Cl)cc2)O3)cc1` the activity change, negative = cytotoxicity was -27.3% (inactive). For `Cc1ccc(S(=O)(=O)N(C)C[C@@H]2Oc3c(NC(=O)c4nc5ccccc5s4)cccc3C(=O)N([C@H](C)CO)C[C@H]2C)cc1`, the activity change, negative = cytotoxicity was 44.2% (inactive). In the case of `Cc1ccc(S(=O)(=O)Nc2ccc3c(c2)CC(=O)N([C@@H](C)CO)C[C@H](C)[C@@H](CN(C)S(=O)(=O)c2ccc(Cl)cc2)O3)cc1`, the activity change, negative = cytotoxicity is reported as 11.7% (inactive). With `Cc1ccc(S(=O)(=O)N(C)C[C@@H]2Oc3ccc(NS(=O)(=O)c4ccc(Cl)cc4)cc3CC(=O)N([C@H](C)CO)C[C@H]2C)cc1` the activity change, negative = cytotoxicity was -11.6% (inactive). In the case of `Cc1ccc(S(=O)(=O)Nc2ccc3c(c2)CC(=O)N([C@H](C)CO)C[C@@H](C)[C@H](CN(C)Cc2ccccc2)O3)cc1`, the activity change, negative = cytotoxicity is reported as 9.12% (inactive).
